Measurements as given in the NIST ThermoML archive (doi:10.1021/je5002126).
± gives the expanded uncertainty stated by the source.

Assays:
[1] = refractive index (Na D-line) (dimensionless); xn = mol fraction of the nth substance listed; conditions: 101 kPa, Liquid, Standard Abbe refractometry
[2] = xn = mol fraction of the nth substance listed; conditions: for electrical conductivity / viscosity / mass density: 101 kPa, Liquid; for electrical conductivity: Alternating current cell with electrodes; for viscosity: Concentric cylinders viscometry; for mass density: Vibrating tube method; for surface tension liquid-gas: Ring tensiometer

CCCC[N+](CCCC)(CCCC)CCCC.[Cl-] [tetrabutylammonium chloride] + OCCO
Conditions	electrical conductivity, [2] [S/m]	mass density, [2] [kg/m3]	refractive index, [1]	surface tension liquid-gas, [2] [mN/m]	viscosity, [2] [mPa·s]
293.15 K, x1 = 0.2	0.000202 ± 8e-06	1145 ± 1.4	1.4615 ± 0.0021	–	85.33 ± 8.6
293.15 K, x1 = 0.25	0.000154 ± 6.2e-06	1130 ± 1.4	1.4653 ± 0.0021	–	105 ± 11
293.15 K, x1 = 0.333	9.91e-05 ± 4e-06	1105 ± 1.4	1.4703 ± 0.0021	–	212 ± 22
303.15 K, x1 = 0.2	0.000272 ± 1.1e-05	1138 ± 1.4	1.4585 ± 0.0021	40.7 ± 1.2	56.9 ± 5.7
303.15 K, x1 = 0.25	0.000214 ± 9e-06	1123 ± 1.4	1.4619 ± 0.0021	40.1 ± 1.2	71.9 ± 7.3
303.15 K, x1 = 0.333	0.000139 ± 6e-06	1099 ± 1.4	1.4672 ± 0.0021	39.3 ± 1.2	127 ± 13
313.15 K, x1 = 0.2	0.000354 ± 1.4e-05	1132 ± 1.4	1.4554 ± 0.0021	39.9 ± 1.2	37.16 ± 3.8
313.15 K, x1 = 0.25	0.000293 ± 1.2e-05	1117 ± 1.4	1.4587 ± 0.0021	39.4 ± 1.2	45.17 ± 4.6
313.15 K, x1 = 0.333	0.00022 ± 1e-05	1092 ± 1.4	1.4641 ± 0.0021	38.3 ± 1.2	76.43 ± 7.7
323.15 K, x1 = 0.2	0.00045 ± 2e-05	1125 ± 1.4	1.4523 ± 0.0021	39.1 ± 1.2	26.27 ± 2.6
323.15 K, x1 = 0.25	0.000387 ± 1.5e-05	1110 ± 1.4	1.4556 ± 0.0021	38.3 ± 1.2	29.37 ± 3
323.15 K, x1 = 0.333	0.00026 ± 1e-05	1086 ± 1.4	1.4609 ± 0.0021	37.2 ± 1.2	49.3 ± 5
333.15 K, x1 = 0.2	0.000521 ± 2.1e-05	1119 ± 1.4	1.4491 ± 0.0021	38.3 ± 1.2	19.7 ± 2
333.15 K, x1 = 0.25	0.000457 ± 1.8e-05	1104 ± 1.4	1.4525 ± 0.0021	37.5 ± 1.2	20.23 ± 2
333.15 K, x1 = 0.333	0.000375 ± 1.5e-05	1079 ± 1.4	1.4578 ± 0.0021	36.6 ± 1.2	33.6 ± 3.4
343.15 K, x1 = 0.2	0.000615 ± 2.5e-05	1112 ± 1.4	1.445 ± 0.002	37.5 ± 1.2	14.85 ± 1.5
343.15 K, x1 = 0.25	0.000567 ± 2.3e-05	1097 ± 1.4	1.4495 ± 0.0021	36.8 ± 1.2	14.53 ± 1.5
343.15 K, x1 = 0.333	0.000385 ± 1.5e-05	1073 ± 1.4	1.4545 ± 0.0021	35.7 ± 1.2	23.53 ± 2.4
353.15 K, x1 = 0.2	0.000722 ± 2.9e-05	1106 ± 1.4	1.4427 ± 0.0021	36.8 ± 1.2	10.5 ± 1.1
353.15 K, x1 = 0.25	0.00062 ± 3e-05	1091 ± 1.4	1.4469 ± 0.0021	36.1 ± 1.2	10.7 ± 1.1
353.15 K, x1 = 0.333	0.000468 ± 1.9e-05	1067 ± 1.3	1.4509 ± 0.0021	34.9 ± 1.1	16 ± 1.6

CCCC[N+](CCCC)(CCCC)CCCC.[Cl-] [tetrabutylammonium chloride] + OCC(O)CO
Conditions	electrical conductivity, [2] [S/m]	mass density, [2] [kg/m3]	refractive index, [1]	surface tension liquid-gas, [2] [mN/m]	viscosity, [2] [mPa·s]
293.15 K, x1 = 0.167	0.0162 ± 0.00065	1040 ± 10	1.4781 ± 0.0021	–	1100 ± 120
293.15 K, x1 = 0.2	0.0192 ± 0.00077	1029 ± 1	1.4776 ± 0.0021	–	950 ± 100
293.15 K, x1 = 0.25	0.017 ± 0.00068	1014 ± 1	1.4802 ± 0.0021	–	1170 ± 130
303.15 K, x1 = 0.167	0.0307 ± 0.0012	1034 ± 1	1.4754 ± 0.0021	47.1 ± 1.2	541.3 ± 57
303.15 K, x1 = 0.2	0.0358 ± 0.0014	1023 ± 1	1.4747 ± 0.0021	46.7 ± 1.2	476.1 ± 50
303.15 K, x1 = 0.25	0.0309 ± 0.0012	1008 ± 1	1.4774 ± 0.0021	46 ± 1	580 ± 62
313.15 K, x1 = 0.167	0.0492 ± 0.002	1027 ± 1	1.4726 ± 0.0021	46.2 ± 1.2	261 ± 27
313.15 K, x1 = 0.2	0.0525 ± 0.0021	1017 ± 1	1.4718 ± 0.0021	45.9 ± 1.2	225 ± 23
313.15 K, x1 = 0.25	0.0485 ± 0.0019	1001 ± 1	1.4745 ± 0.0021	44.9 ± 1.2	293.3 ± 30
323.15 K, x1 = 0.167	0.0788 ± 0.0032	1020 ± 10	1.4697 ± 0.0021	45.5 ± 1.2	137.3 ± 14
323.15 K, x1 = 0.2	0.0863 ± 0.0035	1010 ± 10	1.4687 ± 0.0021	44.9 ± 1.2	115.7 ± 12
323.15 K, x1 = 0.25	0.0781 ± 0.0031	995 ± 1	1.4716 ± 0.0021	44.1 ± 1.2	157 ± 16
333.15 K, x1 = 0.167	0.114 ± 0.0045	1014 ± 1	1.4668 ± 0.0021	45 ± 1	78.4 ± 7.9
333.15 K, x1 = 0.2	0.131 ± 0.0052	1004 ± 1	1.4658 ± 0.0021	44.1 ± 1.2	64.7 ± 6.5
333.15 K, x1 = 0.25	0.117 ± 0.0047	988 ± 1	1.4685 ± 0.0021	43.4 ± 1.2	90.7 ± 9.2
343.15 K, x1 = 0.167	0.141 ± 0.0056	1007 ± 1	1.4638 ± 0.0021	44.2 ± 1.2	47.6 ± 4.8
343.15 K, x1 = 0.2	0.182 ± 0.0073	997 ± 1	1.4626 ± 0.0021	43.5 ± 1.2	41.9 ± 4.2
343.15 K, x1 = 0.25	0.151 ± 0.006	982 ± 1	1.4652 ± 0.0021	42.7 ± 1.2	56.7 ± 5.7
353.15 K, x1 = 0.167	0.222 ± 0.0089	1000 ± 1	1.4607 ± 0.0021	43.5 ± 1.2	32 ± 3.2
353.15 K, x1 = 0.2	0.264 ± 0.011	991 ± 1	1.4603 ± 0.0021	42.9 ± 1.2	25 ± 2.5
353.15 K, x1 = 0.25	0.24 ± 0.0096	976 ± 1	1.462 ± 0.0021	41.9 ± 1.2	36.7 ± 3.7

CCCC[N+](CCCC)(CCCC)CCCC.[Cl-] [tetrabutylammonium chloride] + OCCOCCOCCO
Conditions	electrical conductivity, [2] [S/m]	mass density, [2] [kg/m3]	refractive index, [1]	surface tension liquid-gas, [2] [mN/m]	viscosity, [2] [mPa·s]
293.15 K, x1 = 0.5	0.0139 ± 0.00056	1027 ± 1	1.48 ± 0.01	–	870 ± 93
293.15 K, x1 = 0.667	0.00681 ± 0.00027	1007 ± 1	1.4851 ± 0.0021	–	–
293.15 K, x1 = 0.75	0.00221 ± 8.8e-05	996 ± 1	1.4858 ± 0.0021	–	–
293.15 K, x1 = 0.8	0.00178 ± 7.1e-05	990 ± 10	1.4871 ± 0.0021	–	–
303.15 K, x1 = 0.5	0.0228 ± 0.0009	1021 ± 1	1.4772 ± 0.0021	40.6 ± 1.2	543.8 ± 57
303.15 K, x1 = 0.667	0.0149 ± 0.0006	1001 ± 1	1.4821 ± 0.0021	40.1 ± 1.2	1399 ± 150
303.15 K, x1 = 0.75	0.005 ± 0.0002	990 ± 10	1.4836 ± 0.0021	39.3 ± 1.2	–
303.15 K, x1 = 0.8	0.0047 ± 0.0002	985 ± 1	1.4841 ± 0.0021	40 ± 1	3265.3 ± 370
313.15 K, x1 = 0.5	0.0376 ± 0.0015	1015 ± 1	1.4742 ± 0.0021	39.5 ± 1.2	289.4 ± 30
313.15 K, x1 = 0.667	0.0284 ± 0.0011	995 ± 1	1.479 ± 0.002	38.6 ± 1.2	952.2 ± 100
313.15 K, x1 = 0.75	0.0097 ± 0.0004	984 ± 1	1.4806 ± 0.0021	38.3 ± 1.2	7031.7 ± 830
313.15 K, x1 = 0.8	0.0108 ± 0.0004	980 ± 10	1.4811 ± 0.0021	38.4 ± 1.2	1900.4 ± 210
323.15 K, x1 = 0.5	0.055 ± 0.0022	1009 ± 1	1.4711 ± 0.0021	38.8 ± 1.2	166.4 ± 17
323.15 K, x1 = 0.667	0.0458 ± 0.0018	989 ± 1	1.476 ± 0.002	38 ± 1	493 ± 52
323.15 K, x1 = 0.75	0.0154 ± 0.0006	978 ± 1	1.4777 ± 0.0021	37.2 ± 1.2	909.1 ± 120
323.15 K, x1 = 0.8	0.0214 ± 0.0009	973 ± 1	1.4781 ± 0.0021	37.3 ± 1.2	862.9 ± 93
333.15 K, x1 = 0.5	0.0805 ± 0.0032	1003 ± 1	1.4678 ± 0.0021	38.2 ± 1.2	100.8 ± 10
333.15 K, x1 = 0.667	0.0676 ± 0.0027	983 ± 1	1.4731 ± 0.0021	37.4 ± 1.2	264.1 ± 27
333.15 K, x1 = 0.75	0.0217 ± 0.0009	972 ± 1	1.4747 ± 0.0021	36.6 ± 1.2	452.1 ± 48
333.15 K, x1 = 0.8	0.0252 ± 0.001	968 ± 1	1.4752 ± 0.0021	36.5 ± 1.2	411.2 ± 43
343.15 K, x1 = 0.5	0.11 ± 0.0044	997 ± 1	1.4646 ± 0.0021	37.6 ± 1.2	68.1 ± 6.9
343.15 K, x1 = 0.667	0.0842 ± 0.0034	976 ± 1	1.4701 ± 0.0021	36.4 ± 1.2	154 ± 16
343.15 K, x1 = 0.75	0.0282 ± 0.0011	966 ± 1	1.4717 ± 0.0021	35.7 ± 1.2	244.7 ± 25
343.15 K, x1 = 0.8	0.0262 ± 0.001	961 ± 1	1.4722 ± 0.0021	35.6 ± 1.2	204.5 ± 21
353.15 K, x1 = 0.5	0.147 ± 0.0059	991 ± 1	1.4614 ± 0.0021	37 ± 1	44.7 ± 4.5
353.15 K, x1 = 0.667	0.092 ± 0.0037	970 ± 10	1.4673 ± 0.0021	35.6 ± 1.2	91.3 ± 9.2
353.15 K, x1 = 0.75	0.0319 ± 0.0013	960 ± 10	1.4686 ± 0.0021	34.9 ± 1.1	155.6 ± 16
353.15 K, x1 = 0.8	0.0273 ± 0.0011	955 ± 1	1.4692 ± 0.0021	34.6 ± 1.1	99.9 ± 10
